ChEMBL document CHEMBL4261540, “Approaches to selective fibroblast growth factor receptor 4 inhibition through targeting the ATP-pocket middle-hinge region” (Medchemcomm, 2017)
pIC50: −log10 of the molar value. Active and inactive are the calls of the source. No cut-off for these calls is given here.

What was measured:
[1] = target: Fibroblast growth factor receptor 4 (Homo sapiens, UniProt P22455, C552A)
[2] = target: Fibroblast growth factor receptor 4 (Homo sapiens, UniProt P22455, C477A)
[3] = target: T1, Fibroblast growth factor receptor 4 (Homo sapiens, UniProt P22455)
[4] = target: Fibroblast growth factor receptor 2 (Homo sapiens, UniProt P21802); format: ADME
[5] = target: Fibroblast growth factor receptor 3 (Homo sapiens, UniProt P22607)
[6] = target: Fibroblast growth factor receptor 1 (Homo sapiens, UniProt P11362)
[7] = target: T1, Fibroblast growth factor receptor 4; remark: listed apart in the source
[8] = target: T2, MAP kinase-activated protein kinase 2 (Homo sapiens, UniProt P49137); assay: Inhibition of human MK2 by [gamma33P]ATP assay
Target sequence in this assay (P49137 whole entry): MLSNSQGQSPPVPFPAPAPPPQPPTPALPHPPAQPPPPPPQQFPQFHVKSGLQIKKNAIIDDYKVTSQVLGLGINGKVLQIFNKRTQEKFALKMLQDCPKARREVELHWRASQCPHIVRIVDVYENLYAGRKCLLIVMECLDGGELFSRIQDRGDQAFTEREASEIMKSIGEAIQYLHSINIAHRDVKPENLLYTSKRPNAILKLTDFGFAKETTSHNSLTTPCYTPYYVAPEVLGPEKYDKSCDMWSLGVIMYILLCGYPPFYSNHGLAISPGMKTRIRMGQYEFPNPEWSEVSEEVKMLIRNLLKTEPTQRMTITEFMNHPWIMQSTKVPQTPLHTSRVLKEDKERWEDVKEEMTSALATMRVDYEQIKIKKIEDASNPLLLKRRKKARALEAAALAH

[9] = target: T2, MAP kinase-activated protein kinase 2; assay: Inhibition of human MK2 at 10 uM by [gamma33P]ATP assay
Target sequence in this assay (P49137 whole entry, looked up): as the sequence (P49137 whole entry) above

T1 sequence (P22455 whole entry): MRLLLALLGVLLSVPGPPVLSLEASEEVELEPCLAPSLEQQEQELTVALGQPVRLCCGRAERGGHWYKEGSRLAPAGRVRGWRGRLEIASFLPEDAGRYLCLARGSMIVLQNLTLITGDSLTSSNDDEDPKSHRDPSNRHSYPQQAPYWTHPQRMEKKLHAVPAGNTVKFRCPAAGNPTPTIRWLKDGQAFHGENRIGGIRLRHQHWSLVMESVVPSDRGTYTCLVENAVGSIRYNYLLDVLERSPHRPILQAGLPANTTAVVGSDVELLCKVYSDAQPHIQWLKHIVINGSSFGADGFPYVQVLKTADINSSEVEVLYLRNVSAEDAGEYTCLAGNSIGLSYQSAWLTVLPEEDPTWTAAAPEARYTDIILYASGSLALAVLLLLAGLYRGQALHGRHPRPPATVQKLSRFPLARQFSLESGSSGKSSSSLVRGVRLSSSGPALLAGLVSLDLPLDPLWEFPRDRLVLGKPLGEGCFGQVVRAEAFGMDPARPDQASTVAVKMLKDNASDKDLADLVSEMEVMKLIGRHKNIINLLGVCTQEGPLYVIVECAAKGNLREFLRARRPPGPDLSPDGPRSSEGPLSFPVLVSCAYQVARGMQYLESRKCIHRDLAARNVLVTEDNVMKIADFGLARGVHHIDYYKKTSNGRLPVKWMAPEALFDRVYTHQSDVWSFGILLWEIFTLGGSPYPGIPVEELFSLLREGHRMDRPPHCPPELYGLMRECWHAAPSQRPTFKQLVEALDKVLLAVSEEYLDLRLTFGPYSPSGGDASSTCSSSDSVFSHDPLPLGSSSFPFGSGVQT
Fibroblast growth factor receptor 2, sequence (P21802 whole entry): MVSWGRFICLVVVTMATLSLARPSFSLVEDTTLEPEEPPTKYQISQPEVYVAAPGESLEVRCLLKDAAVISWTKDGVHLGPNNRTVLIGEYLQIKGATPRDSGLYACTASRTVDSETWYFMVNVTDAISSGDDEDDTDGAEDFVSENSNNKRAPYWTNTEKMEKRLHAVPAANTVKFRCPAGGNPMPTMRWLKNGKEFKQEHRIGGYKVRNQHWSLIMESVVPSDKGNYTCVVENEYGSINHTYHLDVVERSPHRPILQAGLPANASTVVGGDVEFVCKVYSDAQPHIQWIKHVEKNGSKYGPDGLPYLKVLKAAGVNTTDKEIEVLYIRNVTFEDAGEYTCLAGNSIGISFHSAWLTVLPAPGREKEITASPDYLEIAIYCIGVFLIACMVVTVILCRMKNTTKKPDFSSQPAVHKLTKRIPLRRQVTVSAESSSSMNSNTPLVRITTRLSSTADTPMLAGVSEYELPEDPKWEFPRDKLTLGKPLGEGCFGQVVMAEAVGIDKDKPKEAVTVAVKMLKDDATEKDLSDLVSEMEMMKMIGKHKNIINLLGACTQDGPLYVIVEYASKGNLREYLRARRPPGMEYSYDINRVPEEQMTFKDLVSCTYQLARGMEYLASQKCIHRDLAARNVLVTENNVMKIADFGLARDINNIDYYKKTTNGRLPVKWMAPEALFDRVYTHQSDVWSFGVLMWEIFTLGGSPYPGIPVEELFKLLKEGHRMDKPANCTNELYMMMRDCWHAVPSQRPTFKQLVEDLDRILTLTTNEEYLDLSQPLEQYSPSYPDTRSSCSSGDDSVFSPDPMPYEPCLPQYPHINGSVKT
Fibroblast growth factor receptor 1, sequence (P11362 whole entry): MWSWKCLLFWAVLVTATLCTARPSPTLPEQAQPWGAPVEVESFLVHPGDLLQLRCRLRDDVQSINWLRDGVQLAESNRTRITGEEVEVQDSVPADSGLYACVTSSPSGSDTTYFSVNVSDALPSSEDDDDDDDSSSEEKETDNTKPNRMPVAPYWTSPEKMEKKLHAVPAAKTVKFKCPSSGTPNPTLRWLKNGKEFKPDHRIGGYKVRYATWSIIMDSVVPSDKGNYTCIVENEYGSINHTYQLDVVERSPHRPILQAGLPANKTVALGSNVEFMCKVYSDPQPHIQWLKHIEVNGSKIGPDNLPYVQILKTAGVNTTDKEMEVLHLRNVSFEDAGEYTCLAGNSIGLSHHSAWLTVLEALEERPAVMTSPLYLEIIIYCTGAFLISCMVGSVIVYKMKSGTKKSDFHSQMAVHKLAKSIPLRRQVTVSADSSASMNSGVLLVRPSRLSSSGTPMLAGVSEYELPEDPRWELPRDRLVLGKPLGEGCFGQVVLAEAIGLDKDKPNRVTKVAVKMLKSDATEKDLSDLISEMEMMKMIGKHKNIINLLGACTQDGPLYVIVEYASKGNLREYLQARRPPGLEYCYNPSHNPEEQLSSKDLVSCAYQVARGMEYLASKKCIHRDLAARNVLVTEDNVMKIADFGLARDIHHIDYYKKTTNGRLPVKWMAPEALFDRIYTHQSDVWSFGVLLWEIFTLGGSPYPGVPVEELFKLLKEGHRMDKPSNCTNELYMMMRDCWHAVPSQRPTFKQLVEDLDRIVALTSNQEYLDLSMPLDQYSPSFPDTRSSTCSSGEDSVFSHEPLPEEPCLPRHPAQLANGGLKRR
Fibroblast growth factor receptor 3, sequence (P22607 whole entry): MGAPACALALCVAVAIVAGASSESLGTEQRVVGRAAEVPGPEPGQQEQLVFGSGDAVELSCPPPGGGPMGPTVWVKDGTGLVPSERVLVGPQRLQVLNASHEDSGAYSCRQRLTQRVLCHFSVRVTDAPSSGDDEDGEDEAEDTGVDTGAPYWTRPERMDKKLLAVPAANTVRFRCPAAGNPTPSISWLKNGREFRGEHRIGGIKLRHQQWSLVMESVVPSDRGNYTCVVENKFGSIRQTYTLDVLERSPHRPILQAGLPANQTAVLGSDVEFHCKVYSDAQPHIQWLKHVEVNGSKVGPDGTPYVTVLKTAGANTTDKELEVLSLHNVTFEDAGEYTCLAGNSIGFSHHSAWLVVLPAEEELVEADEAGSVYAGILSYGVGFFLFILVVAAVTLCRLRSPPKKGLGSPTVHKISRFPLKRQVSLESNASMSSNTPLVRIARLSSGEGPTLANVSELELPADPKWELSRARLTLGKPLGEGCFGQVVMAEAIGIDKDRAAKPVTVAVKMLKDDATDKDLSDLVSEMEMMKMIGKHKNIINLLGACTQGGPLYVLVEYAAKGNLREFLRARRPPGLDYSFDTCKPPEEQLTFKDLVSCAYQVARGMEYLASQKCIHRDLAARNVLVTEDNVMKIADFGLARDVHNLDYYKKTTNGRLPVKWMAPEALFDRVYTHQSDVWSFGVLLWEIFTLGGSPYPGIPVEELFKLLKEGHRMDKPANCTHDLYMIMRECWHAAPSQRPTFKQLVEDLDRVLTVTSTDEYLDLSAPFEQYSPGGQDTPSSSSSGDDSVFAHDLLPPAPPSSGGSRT
Fibroblast growth factor receptor 4 (Homo sapiens, UniProt P22455, C552A), sequence (P22455 22-802 C552A limits assumed): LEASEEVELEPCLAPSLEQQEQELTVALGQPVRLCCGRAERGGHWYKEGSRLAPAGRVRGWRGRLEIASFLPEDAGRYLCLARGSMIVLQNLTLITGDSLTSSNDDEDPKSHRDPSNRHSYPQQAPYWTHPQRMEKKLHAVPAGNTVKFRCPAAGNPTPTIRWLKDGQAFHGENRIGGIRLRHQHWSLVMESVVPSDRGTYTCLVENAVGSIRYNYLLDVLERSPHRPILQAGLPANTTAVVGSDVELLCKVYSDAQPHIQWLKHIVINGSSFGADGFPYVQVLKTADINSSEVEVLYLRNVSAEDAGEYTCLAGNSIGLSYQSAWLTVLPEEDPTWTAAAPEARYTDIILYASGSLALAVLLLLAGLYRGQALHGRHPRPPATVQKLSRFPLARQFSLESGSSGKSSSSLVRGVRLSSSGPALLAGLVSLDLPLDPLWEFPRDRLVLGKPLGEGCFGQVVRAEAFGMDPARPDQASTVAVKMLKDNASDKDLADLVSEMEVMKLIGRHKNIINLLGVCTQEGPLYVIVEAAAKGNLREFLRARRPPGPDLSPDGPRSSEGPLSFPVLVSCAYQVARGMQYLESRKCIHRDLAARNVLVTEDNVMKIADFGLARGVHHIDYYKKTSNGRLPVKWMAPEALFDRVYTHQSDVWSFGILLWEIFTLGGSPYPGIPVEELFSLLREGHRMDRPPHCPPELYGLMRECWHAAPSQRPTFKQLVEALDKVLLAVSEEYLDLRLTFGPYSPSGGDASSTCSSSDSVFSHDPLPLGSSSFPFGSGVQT
Fibroblast growth factor receptor 4 (Homo sapiens, UniProt P22455, C477A), sequence (P22455 22-802 C477A limits assumed): as the sequence (P22455 22-802 C552A limits assumed) above, with C456A, A531C counted along it

pIC50 [1] | pIC50 [2] | pIC50 [3] | pIC50 [4] | pIC50 [5] | pIC50 [6] | pIC50 [7] | pIC50 [8] | inhibition [9] | Structure (SMILES)
< 5.00 | < 5.00 | < 5.00 | – | – | – | – | – | – | O=Cc1ccc2cccc(C(=O)Nc3ccc(C(F)(F)F)cc3)c2n1
– | – | – | 5.35 | 5.10 | 5.20 | 7.54 | – | – | CC(C)Oc1cc(N2CCC(N3CCN(C)CC3)CC2)ccc1Nc1ncc(Cl)c(Nc2ccccc2S(=O)(=O)C(C)C)n1
< 5.00 | < 5.00 | < 5.00 | – | – | – | – | – | – | O=C(Nc1ccc(C(F)(F)F)cn1)c1cccc2cccnc12
– | – | – | 6.44 | 5.46 | – | – | – | – | CC(C)COc1cc(N2CCC(N(C)C)CC2)ccc1Nc1ncc(C#N)c(N[C@H]2[C@@H](C(N)=O)[C@@H]3C=C[C@H]2C3)n1
– | – | – | < 5.00 | < 5.00 | < 5.00 | – | – | – | O=[N+]([O-])c1ccc(Cl)nc1Nc1ncc(C(F)(F)F)cc1Cl
– | – | – | < 5.00 | < 5.00 | < 5.00 | – | 5.64 | Active | O=Cc1ccc2cccc(C(=O)Nc3ccc(C(F)(F)F)cn3)c2n1
– | – | – | 5.77 | 6.11 | 5.49 | – | – | – | C=CC(=O)Nc1cccc(C)c1Nc1ncc2cc(-c3c(Cl)c(OC)cc(OC)c3Cl)ccc2n1
